Assay results from publication PMC6406907, “A H2AX–CARP-1 Interaction Regulates Apoptosis Signaling Following DNA Damage” (Cancers, 2019).
No end group written: not given here.

Tested on: endogenous H2AX
Experiment: Anti-EGFP co-immunoprecipitation with endogenous H2AX
Format: cell-based, human
Details: MDA-MB-468 stable subline, anti-EGFP IP, anti-H2AX WB; Figure 5C
Experimental: Logarithmically growing cells were either untreated or treated with different agents for various time periods. The cells were lysed to prepare protein extracts. IP was carried out by incubating approximately 1 mg of the protein lysate with appropriate antibodies. The immunoprecipitates were then analyzed by SDS-PAGE, followed by WB with respective, interacting protein. For Gst-pulldown, Gst-H2AX or various His-TAT-HA-tagged CARP-1 peptides were generated in Escherichia coli (E. coli) BL21 cells essentially as described by us previously. Briefly, the competent E. coli BL-21 (DE3) pLysS cells were transformed separately with various recombinant pGEX-4T-1 or pTAT-HA constructs. The transformed cells were then subjected to selection by combined presence of ampicillin and chloramphenicol; various isolates for each transformation were obtained and bacterial lysates were characterized for expression of fusion peptides. Cells from each isolate were grown in 4 mL of LB medium containing ampicillin only until the optical density (OD)600 reached 0.4–0.8. Expression of fusion peptides was induced over 2–4 h incubation periods after Isopropyl β-D-1-thiogalactopyranoside (IPTG) addition. […]
Figure 5 Fine Mapping of H2AX/CARP-1 interacting epitopes. […] Following stringent washing, the bound proteins were analyzed with WB using anti-HA (upper) or anti-Gst (middle) antibodies. […]

## EGFP-CARP-1 (636–650): EGFP-tagged fusion protein stably expressed in MDA-MB-468 and HeLa sublines (PKTMKVNDLRKELES; also: EGFP fusion kept, end not given here)
  in-cell interaction with endogenous H2AX: robust, in vivo (in-cell) interaction
